From patent US11135163B2, “Peptide hydrogel properties and its applications” (Kansas State University Research Foundation, priority 2014, dated 2021)

How the values were obtained:
[1] = Oxygen transmission rate (OTR) of hydrogel; assay type: physicochemical
Description: (§1) Hydrogel: 1% h9e peptide was prepared in sodium bicarbonate solution, and 1% BSA was prepared in PBS solution as trigger solution. The h9e peptide solution and BSA solution was mixed at 1:1 volume ratio, and incubated at 37 C for 30 min to prepare hydrogel with 0.5% h9e peptide concentration and 0.5% BSA with a gel strength of about 450 Pa.
Oxygen transmission rate (OTR): The OTR of hydrogels is another important property for in vitro tissue and organ regeneration process. Standard PGmatrix hydrogels was used in this experiment. OTR is the steady state rate at which oxygen gas permeates through a material at specified conditions of temperature and relative humidity. Values are expressed in cc/m2/24 hr in metric units determined by MOCON, Inc. (Minneapolis, […].) for OTR measurement using OX-TRAN instrument according to the standard method. Both challenge gas (oxygen) and sweeper gas (nitrogen) was held at relatively humidity of 100% to avoid gel drying, and temperature will be kept at ambient. 3.75 ml hydrogel was used and spread into thin film to cover the 5 cm^2-area. Experiments were duplicated twice.

female mice of FVB = test: Immune response after subcutaneous injection of hydrogel in mice; assay type: in vivo, mouse
Description: as §1, with “37° C.” for “37 C”
Experiment: In trials #1 and #2, healthy female mice of FVB 6-15 week old were injected subcutaneously in the inguinal region with 100 or 200 uL of the hydrogel or control solutions in a blinded study. Weight and external body temperature were measured daily for up to 2 weeks.
Mammary fat pads from the inguinal region were removed at necropsy. Tissues were fixed with 10% formalin and processing for a 5 um thickness sectioning. Samples were stained with hematoxylin and eosin (H&E). Hydrogel trial 3 was completed in the same manner described above with the following exceptions. 200 uL of hydrogel or control solutions were injected subcutaneously on the back of the animal.
Microscope slide preparation: Samples of the control, and hydrogel treated tissues were submitted for histopath processing at Diagnostic Laboratory at KSU Veterinary School in Mosier Hall. Slides and paraffin blocks were labeled 1 as control and 4 as hydrogel treated, respectively. Adipose tissue samples were processed on the Sakua Tissue-Tek VIP 6, model #VIP6-A1. Then, the samples were then embedded using the Sakura Tissue-Tek Tissue Embedding Console System model #4710. For microscope slide preparation, the paraffin blocks were cut on a 1215 Leitz Rotary Microtome and sectioned at 5 microns. Sections were then mounted on a microscope slide from a water bath. H&E staining of the slides done on an automated stainer, Leica Autostainer XL, model #ST5060. Lastly, the stained slides are covered slipped by an automatic coverslippper, Leica CV5030.
Inflammatory analysis: The fixed tissues of animals without treatment, treated with PBS buffer and h9e hydrogel were further analyzed for inflammatory effects including VWF8 (blood vessel), Arginase I (wound healing macrophage), Fspl and α-smooth muscle actin (fibroblast), CCL2 (pro-inflammatory cytokine), and TGF-beta (immunosuppressive cytokine). 796 (FVB normal mammary gland) was used as negative control. Image J arbitrary unit was used to evaluate these tests using Image J software.

HeLa cells = test: HeLa cell viability (CCK-8) in 3D h9e hydrogel; assay type: cell-based; conditions: same amount of camptothecin
Description: Cell culture and drug efficacy/diffusion tests: HeLa cells were grown in the hydrogel in 3D. Aliquots of HeLa cells solution were added into […] hydrogel with DMEM containing 10% FBS with a final peptide concentration of 0, 0.25, 0.5 and 1 wt %. 100 μl of cell mixture solution (3×10^4 cells per well) was seeded into a 96-well culture plate (Becton Dickinson Labware, Franklin Lakes, N.J.) and placed in an incubator (Nuair, Playmouth, Minn.) in a humidified 5% CO2 atmosphere at 37° C. for about 30 min. After complete hydrogelation, 10 μl of DMEM containing 0, 50 uM, 100 uM, or 200 uM camptothecin was added on top of the hydrogel to obtain camptothecin concentrations of 0 μM, 3.125 μM, 6.25 μM, and 12.5 μM, respectively, upon total diffusion in the hydrogel. Then, 50 ul of DMEM was carefully added to the top of the hydrogel to prevent drying during long-term incubation. All measurements were made at least in triplicate, and the plates were incubated for 3 days. A CCK-8 assay was used to determine cell viability after each treatment. 10 μL of CCK solution was added to each well. After 4 h of incubation, the absorbance at 450 nm was collected on a microplate reader (mQuant, Bio-Tek) and corrected by subtracting the background signal from a wall containing only 160 ul DMEM containing 10% FBS. […]

OTR ([1]; 0.5% h9e, 0.5% BSA hydrogel, 100% relative humidity, ambient temperature): 3,984 cc/m^2-day
OT rate ([1]; h9e hydrogel at 0.5% peptide concentration): about 3,984 cc/m^2 per day
inflammatory effects compared to controls (female mice of FVB; 0.5% h9e/0.5% BSA hydrogel, subcutaneous, mice): No significant inflammatory effects
histological images, hydrogel treated versus control (female mice of FVB; H&E staining): no significant difference
daily activity of treated animals (female mice of FVB; up to 2 weeks): same normal daily activity
Substance: H-FLIVIGSIIGPGGDGPGGD-NH2 [h9e, FLIVIGSIIGPGGDGPGGD]
absorption of hydrogel at necropsy (female mice of FVB; trial 3, 200 uL subcutaneously on the back): complete absorption of hydrogel
HeLa cell viability across h9e hydrogel concentrations (HeLa cells): cell viability was comparable
